These results are taken from patent EP2265632B1, “CD4-RELATED POLYPEPTIDES AND METHODS OF USE” (priority 2008, dated 2009).

In series [1] the test system is recombinant gp120BaL. Briefly: Electrophoretic mobility shift assay (EMSA) with [14C]-acetylated peptides, scintillation counting of excised gp120. The class given is binding, HIV-1. The conditions noted are these: for peptide associated with excised gp120: 5 µM gp120BaL, 500 µM radiolabeled peptide, no reducing agent. On the procedure: Peptide N-terminal [^14C]-Acetylation. Hel-S, Hel-Cs and Hel-C were radioactively labeled by N-terminal acetylation according to the method of Fraenkel-Conrat and Colloms with modifications. Briefly, peptides were reconstituted in an ice cold saturated solution of sodium acetate (> 3 M) to a concentration of 5 mM. [^14C]-Acetic anhydride (specific activity 116 mCi/mmol, Amersham Biosciences, UK) was then added to 100 µl of the reconstituted peptide solution in two 1 µl installments over 15 minutes, and the labeling reactions were incubated for 2 hours on ice. After addition of the final acetic anhydride installment, the reaction concentrations of both peptide and acetic anhydride were 5 mM, and the samples contained 1% toluene and 500 nCi/µl of [^14C]. An equal volume (100 µl) of ice cold PBS (pH 7.4) was then added to each reaction. For buffer exchange and removal of unincorporated radiolabel, the [^14C]-labeled peptides were purified chromatographically using Sephadex G-10 spin columns (Sigma, UK) equilibrated in PBS (pH 7.4). The concentration of the purified labeled peptides was determined by measuring A280, and the labeling efficiencies were analysed by discontinuous PAGE and fluorescence autoradiography, as well as by liquid scintillation counting using Packard Tri-Carb 2200 Liquid Scintillation Analyzer. Labeled peptides were stored in 50 µl aliquots at -80°C.
Electrophoretic Mobility Shift Assay (EMSA). Peptide-gp120 binding reactions were set up in 50 µl and contained 5 µM of pure recombinant gp120BaL and 500 µM of radio labeled Hel-S, Hel-Cs or Hel-C in PBS (pH 7.4). Reactions were incubated at 25°C for 3 hours and then stopped by the addition of an equal volume (50 µl) of either reducing agent-free loading buffer (0.1 M Tris, 20% glycerol, 8% SDS and 0.02% Coomassie blue G-250) or the same buffer containing 1, 10 or 100 mM of DTT. The samples were incubated at 80°C for 3 minutes before loading on a 20 × 20 cm 6 - 20% gradient Tris/Tricine polyacrylamide gel, and were resolved at a constant 40 V for 16 hours at room temperature. After electrophoresis, the gel was rinsed thoroughly with H2O and then stained lightly by incubation in a solution containing 10% methanol, 10% acetic acid and 0.02% Coomassie Blue R-250 for 10 minutes with gentle shaking. The gel was rinsed with H20, and bands corresponding to gp120 were excised using a gel punch and placed in 1.5 ml microcentrifuge tubes. The gp120-containing polyacrylamide slices were solubilized by incubation at 37°C for 16 hours in 400 µl of a solution containing 30% H2O2 and 0.03% ammonium hydroxide. The dissolved polyacrylamide samples were added to 2 ml of Aquasol-2 scintillation cocktail (Perkin Elmer, USA), and radioactive emissions expressed as counts per minute (cpm) measured by scintillation counting.
Hel-C Binds gp120 through disulfide linkage on gp120. We adopted two independent approaches to evaluate the potential of Hel-C to bind recombinant gp120. First, we used an electrophoretic mobility shift assay (EMSA) to detect gp120-bound peptides following resolution of peptide/protein mixtures on denaturing gradient polyacrylamide gels. This method also enabled us to determine whether the mechanism of binding could be related to the establishment of disulphide bonds between the peptides and target gp120, by measuring the proportion of bound peptide in response to increasing doses of DTT. For detection, we decided to incorporate as small a label as possible into the peptide, so that steric effects of the labeling procedure would be minimal (such as would be the case with larger fluorescent/antigenic tags), and that the peptide would be able to adopt a secondary structure as close as possible to the R59-Q64 α-helix chain in CD4. We therefore labeled Hel-C and the control peptides Hel-S and Hel-Cs with [^14C]-acetic anhydride, which incorporated a single [^14C]-acetyl group on the peptide N-termini. […]

Series [2] in a line: Peptide analyses: oxidation state by discontinuous Tris/Tricine PAGE with densitometry. The class given is physicochemical. Particulars: for peptide existing as monomers: densitometric analysis; for peptide existing as monomers / oxidation state of the peptide: no reducing agent; for oxidation state of the peptide: reconstituted in PBS (pH 7.4), Tris/Tricine PAGE. On the procedure:
Peptide analyses. Synthetic 7-mer peptides Hel-S (RRSLWDQ, SEQ ID NO:10), Hel-Cs (DLRQCWR, SEQ ID NO:27) and Hel-C (RRCLWDQ, SEQ ID NO:2) were analysed by discontinuous PAGE according to the method of Schagger and von Zagau with modifications. Briefly, 2.5 µg of each lyophilized peptide reconstituted in pure H2O was mixed with a reducing agent-free loading buffer (0.1 M Tris, 20% glycerol, 8% SDS and 0.02% Coomassie blue G-250), incubated at 80°C for 3 minutes and loaded onto a 17.5% Tris/Tricine gel. Samples were resolved at 20 mAper gel until stacked (1-2 hours) and at 35 mA for 16 hours through the resolving gel. The gel was fixed by incubation in a 5% glutaraldehyde solution for 1 hour and then stained with Coomassie Blue-R250. Peptide monomer/dimer ratios were calculated by densitometry using Quantity One® software (BioRad, Hercules, CA (USA)). To evaluate the redox states of cysteine-containing peptides further, reduced Glutathione (GSH) (Sigma, UK), β-mercaptoethanol and dithiothreitol (DTT) were included in the sample loading buffer at concentrations ranging from 0 to 400 mM, and the samples were resolved and analysed as described above.
Peptide Analyses. We analysed the oxidation states of the synthetic peptides Hel-S, Hel-Cs and Hel-C following reconstitution in PBS (pH 7.4) by high resolution Tris/Tricine PAGE (resolving buffer pH = 8.0). As expected, in aqueous solution at close to neutral pH, the wild-type CD4-mimetic peptide Hel-S consisted of a pure monomer of molecular weight equal to approximately 1 kDa (predicted Mw = 976 g/mol). […] The latter are evident as bands of approximately 2 kDa, which presumably result from intermolecular disulfide bond formation. […] We then treated Hel-C with the thiol-containing reducing compounds β-mercaptoethanol (β-ME) and 1,4-dithiothreitol (DTT) to determine relative effects on cysteine oxidation in this peptide.

For the next series, the system named is gp120BaL. Kind of series: Epitope occlusion assay (ELISA): competition with anti-gp120 MAbs for immobilized gp120. The class given is binding, HIV-1. Particulars: for effect on binding of MAb 654-30D to gp120: CD4bs-directed MAb 654-30D 0.2 nM; for effect on binding of MAb 654-30D to gp120 / effect on binding of MAb b12 to gp120 / effect on binding of MAb 2G12 to gp120 / effect on binding of MAb B4a1 to gp120: 2dCD4 0 to 1 µM or peptides 0 to 1 mM; for effect on binding of MAb b12 to gp120: CD4bs-directed MAb b12 0.2 nM; for effect on binding of MAb 2G12 to gp120: CD4bs-independent MAb 2G12 0.2 nM; for effect on binding of MAb B4a1 to gp120: CD4bs-independent MAb F425 B4a1 (V3 loop) 0.2 nM. On the technique in general: An ELISA detects its analyte on a solid surface through an enzyme-linked reagent.

Series [3] deals with recombinant gp120BaL. Kind of series: Surface plasmon resonance (Biacore 3000) on immobilized gp120. The series is classed as binding, HIV-1. As for the experimental part:
Surface Plasmon Resonance. All surface Plasmon resonance (SPR) experiments were performed on a BIA3000 optical biosensor (Biacore Inc., Uppsala, Sweden). Recombinant gp120BaL was immobilized on CM5 sensor chips by amine coupling according to the manufacturer's instructions. Briefly, a solution of 0.2 M EDC and 0.05 M NHS was used to activate carboxyl groups on the sensor surface at a flow rate of 5 µL/min for 10 minutes. Recombinant gp120BaL, dissolved in 100 mM sodium acetate buffer (pH 5.5) to a final concentration of 0.05 µM, was passed over the sensor chip surface at a flow rate of 5 µL/min until an immobilization level of 5000 RU was achieved. Excess carboxyl groups were capped by injection of 1 M ethanolamine (pH 8.0) at a flow rate of 5 µL/min for 5 minutes. Unbound ligand was removed by injecting 10 mM glycine (pH 2.5) at a flow rate of 5 µL/min for 2 minutes. In all experiments, the neighbouring flow cell was treated as mentioned above without the immobilization of gp120BaL, and this served as a reference surface. Prior to all experiments, the functionalities of the gp120 surfaces were tested by binding sCD4 at 500 nM in HEPES-buffered saline supplemented with 0.15 M NaCl (HBS-N, pH7.4). Analyte solutions were prepared in HBS-N at least 30 minutes prior to injection. All binding experiments were performed in duplicate at 25°C. For peptide binding analyses, increasing concentrations of peptide (from 0 to 500 µM) were passed over the surface at a flow rate of 5 µL/min, with a 5 minute association phase and a 6 minute dissociation phase. Surfaces were regenerated with a 20 mM sodium hydroxide (NaOH) solution between consecutive peptide analyses. The integrity of the surfaces was tested after each regeneration for sCD4 binding. Buffer injections and control surface binding were subtracted for all reported data.
Recombinant gp120BaL was immobilized on CM5 sensorchips and exposed to increasing concentrations of Hel-S, Hel-Cs or Hel-C.
The reasons for the slight difference are likely to be related to the different target gp120s used in these studies. […] Our data thus fit to a direct binding model consistent with 1:1 stoichiometry, and closely match previously published results.
(Surface plasmon resonance follows binding to a sensor surface in real time, without labels.)

As to DLRQCWR [Hel-Cs], the “peptide associated with excised gp120” value in the series with recombinant gp120BaL [1] was “small amount”. Further, in series [2], the “peptide existing as monomers” value is given as “less than 10%”; the “oxidation state of the peptide” value was “mixture of monomers and dimers”. In addition, in the series on gp120BaL, the “effect on binding of MAb 654-30D to gp120” value is “did not compete”, the “effect on binding of MAb b12 to gp120” value is given as “did not compete”, the “effect on binding of MAb 2G12 to gp120” value is “did not compete” and the “effect on binding of MAb B4a1 to gp120” value is “did not compete”. In the series on gp120BaL (listed as scrambled), the “effect on binding of MAb b12 to gp120” value is recorded as “does not”.

As for RINNIPWSEAMM [12p1, reference compound], the “calculated Rmax” value in the series with recombinant gp120BaL [3] (5000 RU gp120BaL surface) is reported as “approximately 67 RU”. The amount bound entry in the series with recombinant gp120BaL [3] (just over 100 µM peptide, 5000 RU gp120 BaL surface) was “approximately 45 RU”.

Take “RRCLWDQ [Hel-C, linear CD4-mimetic 7-mer peptide, R58 to Q64 of mature CD4 with S60C mutation]”: the “peptide associated with excised gp120” value with recombinant gp120BaL [1] was “significant quantity”. Also, the “amount of bound peptide relative to the amount bound in the absence of any reducing compound” value in the series on recombinant gp120BaL [1] (100 mM DTT) is 10%. In addition, the “mode of binding to gp120 (EMSA)” value in the series on recombinant gp120BaL [1] (C14-radioactively labeled peptide, denaturing gels, absence and presence of reducing agents) was “binds covalently”. Besides, the “amount of Hel-C bound to gp120” value in the series with recombinant gp120BaL [1] (increasing amounts of DTT added) is “decreased”. Besides, the “proportion of Hel-C monomer” value in series [2] (DTT at 10 mM) came to 50%. In addition, the “effect of DTT on cysteine oxidation” value in series [2] (DTT at 200 mM) is reported as “completely abolished the ability of the peptide to oxidize”. In series [2], the “peptide existing as monomers” value was “less than 10%”; the “oxidation state of the peptide” value is “mixture of monomers and dimers”. In addition, the “effect of β-ME on cysteine oxidation” value in series [2] (β-ME at 200 mM) was “unable to monomerize the peptide completely”. In the series with gp120BaL, the “effect on binding of MAb 654-30D to gp120” value was “dose-dependent inhibitory effect”, the “effect on binding of MAb b12 to gp120” value is reported as “dose-dependent inhibitory effect”, the “effect on binding of MAb 2G12 to gp120” value is given as “did not compete” and the “effect on binding of MAb B4a1 to gp120” value is “did not compete”. Besides, in the series with gp120BaL (listed as S85C), the “effect on binding of MAb b12 to gp120” value is recorded as “appear to block”. For the same substance, the “relief of Hel-C-mediated inhibition of b12-gp120 binding” value in the series on gp120BaL (peptide pre-treated with 20 mM DTT) is on record as “complete”. Further, the “relief of Hel-C-mediated inhibition of b12-gp120 binding” value with gp120BaL (peptide pre-treated with 20 mM β-mercaptoethanol) was “only partially rescued b12 binding”. The “effect of reducing compounds on the amount of 2G12 bound in the presence or absence of peptide” value with gp120BaL (peptide pre-treated with 20 mM β-mercaptoethanol or DTT) is recorded as “no effect”. Besides, the “mode of binding to gp120 (SPR binding kinetics)” value in the series on recombinant gp120BaL [3] (both monomeric and trimeric gp120 proteins) was “binds covalently”. Moreover, the “binding to recombinant gp120” value with recombinant gp120BaL [3] (conclusion from EMSA and SPR collectively) is “able to bind recombinant gp120”.

As for RRSLWDQ [Hel-S], the “peptide associated with excised gp120” value in the series on recombinant gp120BaL [1] is given as “no detectable”. Moreover, in series [2], the “oxidation state of the peptide” value is “pure monomer”. In the series on gp120BaL, the “effect on binding of MAb 654-30D to gp120” value is recorded as “did not compete”, the “effect on binding of MAb b12 to gp120” value was “did not compete”, the “effect on binding of MAb 2G12 to gp120” value is recorded as “did not compete” and the “effect on binding of MAb B4a1 to gp120” value is given as “did not compete”. For the same substance, the “effect on binding of MAb b12 to gp120” value in the series with gp120BaL (listed as native) is on record as “does not”.
